# Experimental data published in paper PMC10614388, “Genoprotective potential of Macaranga species phytochemical compounds on HT-29 human colorectal adenocarcinoma cell line” (Genes and Environment, 2023).
# “Also recorded” adds a separate entry of the source. Like-named read-outs stand apart in the source and are kept apart here.
# Assays:
# HT-29 cells [1] = experiment: Alkaline Comet assay, protection against menadione-induced genotoxicity
# Method: (§1) Alkaline Comet Assay was used to assess strand breaks in DNA indicative of DNA damage. The experiment was carried out according to previous study by Tan et al.. […] Cells were also treated with hydrogen peroxide (H2O2) (as positive control, 1.0 mM) for 30 min. […] Following respective incubations, detached cells in the media were collected, added to trypsinize cells and centrifuged (2500 rpm/5 min). The supernatant was removed, and the pellet was washed with Ca^2+−/Mg^2+-free PBS before re-centrifugation. Pellets left at the bottom were mixed thoroughly with 80 µl of 0.6% low melting agarose (LMA) (w/v) and the mixture was pipetted onto hardened 0.6% normal melting agarose (NMA) (w/v) on the slide. Coverslips were placed to spread the mixture and the slides were left on ice for LMA to solidify. Following the removal of the coverslips, the embedded cells were lysed in lysis buffer containing 2.5 M NaCl, 100 mM Na2EDTA, 10 mM Tris, and 1% Triton X-100 for 1 h at 4 °C. Slides were soaked in electrophoresis buffer solution for 20 min at 4 °C for DNA-unwinding before electrophoresis at 300 mA, 25 V, for 20 min. Subsequently, the slides were rinsed with neutralizing buffer for 5 min and stained with […] ethidium bromide solution. Slides were analysed using Leitz Laborlux epifluorescence microscope equipped with 515 barrier filter and 560 emission filter. Fifty cells per slide were scored and the tail moment (TM) and % tail DNA (TD) were analyzed with COMET assay III (Perceptive Instruments, UK).
# [2] = test system: HT-29 human colorectal adenocarcinoma cell line; experiment: Sulforhodamine B (SRB) cytotoxicity assay; assay type: cell-based; conditions: HT-29 cells, 48 h treatment
# Method: (§2) HT-29 (HTB-38™) cells were grown in McCoy’s 5a Modified Medium (Sigma-Aldrich, St. Louis, MO, USA) while CCD-18Co (CRL-1459™) cells were grown in Eagle’s Minimum Essential Medium (EMEM; Thermo Fisher Scientific, Waltham, MA, USA). Both culture media were supplemented with 10% foetal bovine serum (FBS; Thermo Fisher Scientific, Waltham, MA, USA) and penicillin-streptomycin antibiotic (Thermo Fisher Scientific, Waltham, MA, USA). Non-essential amino acids (NEAA; Thermo Fisher Scientific, Waltham, MA, USA) were added to the completed EMEM media. Cells were maintained at 37 °C in a 5% CO2 incubator. Cells were detached via trypsinization (0.025% trypsin) after reaching confluency and were ready to be used for tests.
# (§3) Sulforhodamine B (SRB) assay was used to assess the cytotoxicity of the compounds [17]. Briefly, HT-29 and CCD-18Co cells were seeded in 96-well-plate at 1.5 × 10^5 cells/ml respectively and were incubated at 37 °C in 5% CO2 for 24 h. 100 µl of six concentrations of serially diluted compounds (0.94–30 µg/ml) were added in their respective wells. Hydrogen peroxide (10 mM) was used as the positive control. The plate was incubated for 48 h. Cells were fixed with 50 µl of 50% cold (4 °C) trichloroacetic Acid (TCA) and incubated at 4 °C for 1 h. The plates were washed five times with tap water and air-dried before staining with 100 µL of 0.4% (w/v) SRB staining solution (Sigma-Aldrich, St. Louis, MO, USA). Further incubation was done for 30 min at room temperature. Subsequently, the plates were washed three times with 1% (v/v) acetic acid to remove any unbound stains. After air-dried, 200 µL of 10 mM trizma base were added into each well and agitated for 15 min. Absorbance was read with a microplate reader with Microplate Manager® Software at the wavelength of 564 nm. All experiments were carried out in triplicates.
# [3] = test system: CCD-18Co human normal colon cell line; experiment: Sulforhodamine B (SRB) cytotoxicity assay; assay type: cell-based; conditions: CCD-18Co cells, 48 h treatment
# Method: as §2, §3
# HT-29 cells [4] = conditions: human, 21.2 µM
# Method: as §1
# HT-29 cells [5] = experiment: Annexin V-FITC/PI apoptosis assay (flow cytometry); assay type: cell-based, human
# Method: The mode of cell death was determined using the Annexin V-FITC/PI apoptosis assay. Cells were treated with IC50 value of the selected compound and apoptosis assessment were done at 4 h, 24 and 48 h respectively. 100µM of menadione was used as a positive control with an enriched media act as a negative control. The measurement of apoptosis is based on phosphatidylserine (PS) exposure as described previously. Briefly, cells were collected and resuspended in […] annexin V buffer containing […] FITC-conjugated annexin V and incubated for 15 min in the dark. Propidium iodide ([…] of 50 mg/ml stock in PBS) was then added and samples were subjected to flow cytometric analysis using FACS CANTO II (BD Biosciences, San Jose, CA, USA).
# [6] = design: method as in doi:10.1016/j.phytol.2019.02.002; conditions: cited from earlier work
# HT-29 cells [7] = experiment: Reactive oxygen species by dihydroethidine (HE) staining (flow cytometry); assay type: cell-based, human
# Method: The generation of superoxide anion was determined as described previously. […] Cells were then centrifuged at 220 g for 5 min and resuspended in 1 ml PBS. Flow cytometry was performed using FACS CANTO II (BD Bioscience).
# [8] = test system: murine leukemia P-388 cells; design: method as in earlier work; conditions: Tanjung et al. (2017); cited from earlier work
# [9] = pre-treated with Laevifolin A at IC50 for 20 h, followed by 4-hour menadione (100 µM)
# [10] = menadione 100 µM, 4-hour incubation
structure (smiles),measurement,setting,value
CC(C)=CCc1c(CCc2c(CC=C(C)C)c(O)cc(O)c2CC=C(C)C)ccc(O)c1O [Laevifolin A],"Level of DNA damage, % tail DNA",HT-29 cells [1]; [9],1.24 ± 0.1%
same,"Level of DNA damage, Tail moment",HT-29 cells [1]; [9],9.8 ± 0.9 Arbitrary unit
same,IC50,"[2]; Homo sapiens, read-out: IC50",21.2 µM
same,IC50,[3],59.5 µM
same,"Level of DNA damage, % tail DNA",HT-29 cells [4]; 30 min,6.4 ± 1.6%
same,"Level of DNA damage, Tail moment",HT-29 cells [4]; 30 min,0.53 ± 0.1 Arbitrary unit
same,"Level of DNA damage, % tail DNA",HT-29 cells [4]; 1 h,6.0 ± 0.6%
same,"Level of DNA damage, Tail moment",HT-29 cells [4]; 1 h,0.45 ± 0.03 Arbitrary unit
same,"Level of DNA damage, % tail DNA",HT-29 cells [4]; 4 h,4.3 ± 1.2%
same,"Level of DNA damage, Tail moment",HT-29 cells [4]; 4 h,0.31 ± 0.1 Arbitrary unit
same,"Level of DNA damage, % tail DNA",HT-29 cells [4]; 24 h,7.8 ± 0.7%
same,"Level of DNA damage, Tail moment",HT-29 cells [4]; 24 h,0.69 ± 0.1 Arbitrary unit
same,induction of apoptotic cells,"HT-29 cells [5]; Laevifolin A at IC50 (21.2 µM), 4 h, 24 and 48 h, compared to negative control",no induction of apoptosis; also recorded: no significant induction of apoptotic cells; also recorded: did not induce apoptosis
same,"antioxidant properties, DPPH radical scavenging activity",[6],possesses antioxidant properties
same,percentage of cells with HE uptake (generation of ROS),"HT-29 cells [7]; Laevifolin A at IC50 (21.2 µM), compared with negative control",no significant increase; also recorded: no significant increase or decrease of ROS
same,IC50,[8],4.3 ± 0.6 µM
CC(C)=CCc1cc(CCc2c(CC=C(C)C)c(O)cc(O)c2CC=C(C)C)cc(O)c1O [Laevifolin B],IC50,[2],no IC50 values were obtained
same,IC50,[8],12.3 ± 0.6 µM
"CC1=CC(=O)c2ccccc2C1=O [Menadione, reference compound]","Level of DNA damage, % tail DNA",HT-29 cells [1]; [10],*23.4 ± 3.1%
same,"Level of DNA damage, Tail moment",HT-29 cells [1]; [10],*7.00 ± 0.8 Arbitrary unit
same,induction of apoptotic cells,HT-29 cells [5]; positive control at 100 µM,significant (p < 0.05) increase of apoptotic cells
same,percentage of cells with HE uptake (generation of ROS),"HT-29 cells [7]; menadione at 100 µM, positive control",22.6 ± 1.0%
CC(C)=CCc1cc(CCc2c(CC=C(C)C)c(O)cc(O)c2CC=C(C)C)ccc1O [Malayheyneiin A],IC50,[2],no IC50 values were obtained
